From PubChem BioAssay AID651639 (Sanford-Burnham Center for Chemical Genomics, 2012)
Active and inactive are the calls of the source. The rule behind the calls is not given here.

biological target: corticotropin-releasing factor-binding protein / CRF receptor 2 complex (human); test: CRF-BP/CRF-R2 complex antagonists, dose response, cell-based, uHTS hits, 384-well (AID 651639); details: CRF-BP/CRF-R2 complex antagonism, cell-based 384-well

Structure (SMILES) | IC50
N#C/C(=C(/O)COc1ccc(Cl)cc1)c1nc2ccccc2s1 | > 20 µM (inactive)
CN1C(=O)C(N=Nc2ccc([N+](=O)[O-])cc2)SC1=S (stereo not given) | 1 µM
O=[N+]([O-])c1cc(/C=N\O)ccc1Oc1ccc(F)cc1 | 17.5 µM
Cc1cc(=O)oc2c1ccc1oc(/C(=N/O)c3ccccc3)c(C)c12 | > 20 µM (inactive)
N#C/C(=C(/O)Cc1cccc2ccccc12)c1nc2ccccc2s1 | 11.3 µM
COc1ccc(C(C)=NNc2ccc([N+](=O)[O-])cc2S(=O)(=O)Nc2ccccc2C(=O)O)c(OC)c1 | 9.4 µM
CN1c2ccccc2C(O)=C(C(=S)Nc2ccc(Cl)cc2)S1(=O)=O | > 20 µM (inactive)

Second part, the molecule after the results:

IC50 | Structure (SMILES)
15.5 µM | Cc1ccc(-n2[nH]c(C)c(/C=N/Nc3ccc([N+](=O)[O-])cc3[N+](=O)[O-])c2=O)cc1
> 20 µM (inactive) | Cc1ccc(S(=O)(=O)N(CC(=O)N=Nc2c(O)[nH]c3ccccc23)c2ccc(C)c(C)c2)cc1
> 20 µM (inactive) | O=C(O)c1ccc(/C=N/Nc2cccc(C(F)(F)F)c2)cc1
> 20 µM (inactive) | O=C1N=c2ccccc2=C1c1sc(=S)n(NC(=O)c2cccc(O)c2)c1O
> 20 µM (inactive) | COc1ccc(/C=N/OCC(=O)N=Nc2c(O)[nH]c3ccc(Br)cc23)cc1
> 20 µM (inactive) | COC(=O)c1ccc(/C(O)=C(\C#N)c2nc3ccccc3s2)cc1
> 20 µM (inactive) | Cc1ccc2nc(N3C(=O)C(O)=C(C(=O)c4ccco4)C3c3cccc(O)c3)sc2c1 (stereo not given)
10.4 µM | Cc1ccc2nc(N3C(=O)C(O)=C(C(=O)c4ccc(C)o4)C3c3cccc(O)c3)sc2c1 (stereo not given)
